Test results: patent US10011597B2 (APOGLYX AB, priority 2014, dated 2018)

Biological target: T1, human aquaporin 9 (Homo sapiens, UniProt O43315)
T1 construct: expressed in transfected cells; host or cells: Human AQP9 cell line with tetracycline added to the medium
T1 sequence (O43315 1-295): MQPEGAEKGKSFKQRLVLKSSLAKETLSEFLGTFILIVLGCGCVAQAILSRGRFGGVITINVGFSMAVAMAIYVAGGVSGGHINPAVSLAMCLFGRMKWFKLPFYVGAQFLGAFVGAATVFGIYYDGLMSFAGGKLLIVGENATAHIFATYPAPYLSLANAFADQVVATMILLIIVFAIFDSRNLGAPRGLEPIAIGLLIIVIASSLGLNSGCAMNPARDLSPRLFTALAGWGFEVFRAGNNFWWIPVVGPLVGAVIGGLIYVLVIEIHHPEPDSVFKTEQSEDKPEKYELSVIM
Assay: Calcein quenching fluostar assay
Assay type: cell-based
Details: inhibition of human aquaporin 9; Human AQP9 cell line, tetracyclin-induced; 25° C.
Description: Calcein Quenching Fluostar Assay
A calcein quenching fluostar assay was performed in order to investigate the biological activity of the newly synthesized examples 1 to 57. This type of assay is disclosed in J. Biol. Chem., 2011, 286, 44319-44325 and Am. J. Physiol. Renal Physiol. (2010), 298, F224-230.
1) Two days prior to commencement of the assay, seed 10,000 cells/well of 96 well black clear bottom plate (Greiner Poly-lysin plate). A 1:1 mix of Dulbecco's Modified Eagle's Medium:Nutrient Mixture F-12 (DMEM: F12) was obtained from Gibco. Tetracycline stock of 5 mg/ml in 96% ethanol is used. Medium:DMEM/F12/10% Donor Bovine Serum, Human AQP9 cell line+1:270,000 tetracyclin, mouse AQP9 cell line+1:2,700,000 tetracycline.
2) Day of assay: Flick/slam off the medium and add 50 μl/well of loading solution: 5 ml DMEM/F12/10% Donor Bovine Serum, 25 μl Calcein AM—from freshly dissolved aliquot in 50 μl DMSO (VWR #734-1434), and 100 μl Probenecid.
3) Incubate the well for 90 minutes at 37° C.
4) Perform one wash with 75 μl wash buffer.
5) Add 75 μl of an example compound prepared in wash buffer per well.
Example compounds are prepared in 500 μl U bottom PP plates (NUNC). […] Substance in DMSO are added to row A; 180 μl of wash buffer+1% DMSO are added to rows B-H. 90 μl from row A are transferred and mixed with all other wells (up to row G) to make a 3-fold dilution series.
6) Assay in FLUOstar Optima at 25° C. Settings buffer addition at 135 μl seconds, add 75 μl/well, record time course for 30 seconds, add sucrose buffer 3.6 seconds into recording.
7) Normalization to initial in Excel.
8) Fit to “exponential decay” function in GraphPad Prism 5.0, then arrange half live shrinking values according to wells and fit dose-response curves.

SMILES	IC50
CCn1c(SCC(=O)Nc2nnc(-c3ccc(OC)cc3)s2)nnc1-c1ccc(C)cc1 [Example 15, 2-{[4-Ethyl-5-(4-methylphenyl)-4H-1,2,4-triazol-3-yl]sulfanyl}-N-[5-(4-methoxyphenyl)-1,3,4-thiadiazol-2-yl]acetamide]	262 nM
COc1ccc(-c2nnc(NC(=O)CSc3nnc(-c4ccncc4)n3C)s2)cc1 [Example 10, N-[5-(4-methoxyphenyl)-1,3,4-thiadiazol-2-yl]-2-{[4-methyl-5-(pyridin-4-yl)-4H-1,2,4-triazol-3-yl]sulfanyl}acetamide]	37 nM
CCn1c(SCC(=O)Nc2nnc(-c3ccc(OC)cc3)s2)nnc1-c1ccc(F)cc1 [Example 11, 2-{[4-Ethyl-5-(4-fluorophenyl)-4H-1,2,4-triazol-3-yl]sulfanyl}-N-[5-(4-methoxyphenyl)-1,3,4-thiadiazol-2-yl]acetamide]	40 nM
CCn1c(SCC(=O)Nc2nnc(-c3ccc(F)cc3)s2)nnc1-c1cccc(F)c1 [Example 28]	200 nM
Cn1c(SCC(=O)Nc2nnc(-c3ccc(F)cc3)s2)nnc1-c1ccc(F)cc1 [Example 1, N-[5-(4-fluorophenyl)-1,3,4-thiadizole-2-yl]-2-{[5-(4-fluorophenyl)-4-methyl-4H-1,2,4-triazole-3-yl]sulfanyl}acetamide]	393 nM
Cn1c(SCC(=O)Nc2nnc(-c3cccc(F)c3)s2)nnc1-c1ccc(F)cc1 [Example 3, N-[5-(3-fluorophenyl)-1,3,4-thiadizole-2-yl]-2-{[5-(4-fluorophenyl)-4-methyl-4H-1,2,4-triazole-3-yl]sulfanyl}acetamide]	1290 nM
CCn1c(SCC(=O)Nc2nnc(-c3ccc(F)cc3)s2)nnc1-c1cccnc1 [Example 30, 2-{[4-Ethyl-5-(pyridin-3-yl)-4H-1,2,4-triazol-3-yl]sulfanyl}-N-[5-(4-fluorophenyl)-1,3,4-thiadiazol-2-yl]acetamide]	110 nM
CCn1c(SCC(=O)Nc2nnc(-c3ccc(OC)cc3)s2)nnc1-c1ccncc1 [Example 21, 2-{[4-Ethyl-5-(pyridin-4-yl)-4H-1,2,4-triazol-3-yl]sulfanyl}-N-[5-(4-methoxyphenyl)-1,3,4-thiadiazol-2-yl]acetamide]	68 nM
CCn1c(SCC(=O)Nc2nnc(-c3ccc(F)cc3)s2)nnc1-c1ccccc1F [Example 27, 2-{[4-Ethyl-5-(2-fluorophenyl)-4H-1,2,4-triazol-3-yl]sulfanyl}-N-[5-(4-fluorophenyl)-1,3,4-thiadiazol-2-yl]acetamide]	366 nM
CCn1c(SCC(=O)Nc2nnc(-c3ccc(OC)cc3)s2)nnc1-c1cccc(F)c1 [Example 18, 2-{[4-Ethyl-5-(3-fluorophenyl)-1,2,4-triazol-3-yl]sulfanyl}-N-[5-(4-methoxyphenyl)-1,3,4-thiadiazol-2-yl]acetamide]	135 nM
CCn1c(SCC(=O)Nc2nnc(-c3ccc(OC)cc3)s2)nnc1-c1cccc(OC)c1 [Example 22, 2-{[4-Ethyl-5-(3-methoxyphenyl)-4H-1,2,4-triazol-3-yl]sulfanyl}-N-[5-(4-methoxyphenyl)-1,3,4-thiadiazol-2-yl]acetamide]	160 nM
CCn1c(SCC(=O)Nc2nnc(-c3ccc(F)cc3)s2)nnc1-c1cccc(C)c1 [Example 23]	372 nM
COc1ccccc1-c1nnc(NC(=O)CSc2nnc(-c3ccc(F)cc3)n2C)s1 [Example 4, 2-{[5-(4-Fluorophenyl)-4-methyl-4H-1,2,4-triazole-3-yl]sulfanyl}-N-[5-(2-methoxyphenyl)-1,3,4-thiadizole-2-yl]-acetamide]	4740 nM
CCn1c(SCC(=O)Nc2nnc(-c3ccc(OC)cc3)s2)nnc1-c1ccc(OC)cc1 [Example 16, 2-{[4-Ethyl-5-(4-methoxyphenyl)-4H-1,2,4-triazol-3-yl]sulfanyl}-N-[5-(4-methoxyphenyl)-1,3,4-thiadiazol-2-yl]acetamide]	269 nM
CCn1c(SCC(=O)Nc2nnc(-c3ccc(OC)cc3)s2)nnc1-c1cccnc1 [Example 20, 2-{[4-Ethyl-5-(pyridin-3-yl)-4H-1,2,4-triazol-3-yl]sulfanyl}-N-[5-(4-methoxyphenyl)-1,3,4-thiadiazol-2-yl]acetamide]	56 nM
CCn1c(SCC(=O)Nc2nnc(-c3ccc(OC)cc3)s2)nnc1-c1ccccc1Cl [Example 19, 2-{[5-(2-Chlorophenyl)-4-ethyl-4H-1,2,4-triazol-3-yl]sulfanyl}-N-[5-(4-methoxyphenyl)-1,3,4-thiadiazol-2-yl]acetamide]	233 nM
CCn1c(SCC(=O)Nc2nnc(-c3ccc(OC)cc3)s2)nnc1-c1cccc(C)c1 [Example 14, 2-{[4-Ethyl-5-(3-methylphenyl)-4H-1,2,4-triazol-3-yl]sulfanyl}-N-[5-(4-methoxyphenyl)-1,3,4-thiadiazol-2-yl]acetamide]	172 nM
CCn1c(SCC(=O)Nc2nnc(-c3cccc(OC)c3)s2)nnc1-c1ccc(F)cc1 [Example 5, 2-{[4-ethyl-5-(4-fluorophenyl)-4H-1,2,4-triazol-3-yl]sulfanyl}-N-[5-(3-methoxyphenyl)-1,3,4-thiadiazol-2-yl]acetamide]	4830 nM
CCCn1c(SCC(=O)Nc2nnc(-c3ccc(OC)cc3)s2)nnc1-c1ccc(F)cc1 [Example 32, 2-{[5-(4-Fluorophenyl)-4-propyl-4H-1,2,4-triazol-3-yl]sulfanyl}-N-[5-(4-methoxyphenyl)-1,3,4-thiadiazol-2-yl]acetamide]	416 nM

Further lines, results first:

IC50	SMILES
373 nM	COc1ccc(-c2nnc(NC(=O)CSc3nnc(-c4ccccc4)n3CCN)s2)cc1 [Example 49, 2-{[4-(2-aminoethyl)-5-phenyl-4H-1,2,4-triazol-3-yl]sulfanyl}-N-[5-(4-methoxyphenyl) 1,3,4 thiadiazol-2-yl]acetamide]
901 nM	CCn1c(SCC(=O)Nc2nnc(-c3ccc(CS(C)(=O)=O)cc3)s2)nnc1-c1ccc(F)cc1 [Example 54, 2-{[4-ethyl-5-(4-fluorophenyl)-4H-1,2,4-triazol-3-yl]sulfanyl}-N-{5-[4-(methanesulfonylmethyl)phenyl]-1,3,4-thiadiazol-2-yl}acetamide]
134 nM	CCn1c(SCC(=O)Nc2nnc(-c3ccc(S(C)(=O)=O)cc3)s2)nnc1-c1ccc(F)cc1 [Example 53, 2-{[4-ethyl-5-(4-fluorophenyl)-4H-1,2,4-triazol-3-yl]sulfanyl}-N-[5-(4-methanesulfonylphenyl)-1,3,4-thiadiazol-2-yl]acetamide]
190 nM	CCn1c(SCC(=O)Nc2nnc(-c3ccccc3F)s2)nnc1-c1ccc(F)cc1 [Example 38, 2-{[4-ethyl-5-(4-fluorophenyl)-4H-1,2,4-triazol-3-yl]sulfanyl}-N-[5-(2-fluorophenyl)-1,3,4-thiadiazol-2-yl]acetamide]
129 nM	CCn1c(SCC(=O)Nc2nnc(-c3ccc(OS(C)(=O)=O)cc3)s2)nnc1-c1ccc(F)cc1 [Example 36, 4-[5-(2-{[4-Ethyl-5-(4-fluorophenyl)-4H-1,2,4-triazol-3-yl]sulfanyl}acetamido)-1,3,4-thiadiazol-2-yl]phenyl methanesulfonate]
92 nM	CCn1c(SCC(=O)Nc2nnc(-c3ccc(F)cc3)s2)nnc1-c1ccc(Cl)cc1 [Example 43, 2-{[5-(4-chlorophenyl)-4-ethyl-4H-1,2,4-triazol-3-yl]sulfanyl}-N-[5-(4-fluorophenyl)-1,3,4-thiadiazol-2-yl]acetamide]
978 nM	COc1ccc(-c2nnc(NC(=O)CSc3nnc(-c4ccc(F)cc4)n3C3CC3)s2)cc1 [Example 33, 2-{[4-Cyclopropyl-5-(4-fluorophenyl)-4H-1,2,4-triazol-3-yl]sulfanyl}-N-[5-(4-methoxyphenyl)-1,3,4-thiadiazol-2-yl]acetamide]
676 nM	CCn1c(SCC(=O)Nc2nnc(-c3ccc(SC)cc3)s2)nnc1-c1ccc(F)cc1 [Example 55, 2-{[4-ethyl-5-(4-fluorophenyl)-4H-1,2,4-triazol-3-yl]sulfanyl}-N-{5-[4-(methylsulfanyl)phenyl]-1,3,4-thiadiazol-2-yl}acetamid]
113 nM	CCn1c(SCC(=O)Nc2nnc(-c3ccc(OC)cc3)s2)nnc1-c1cccc(Cl)c1 [Example 39, 2-{[5-(3-chlorophenyl)-4-ethyl-4H-1,2,4-triazol-3-yl]sulfanyl}-N-[5-(4-methoxyphenyl)-1,3,4-thiadiazol-2-yl]acetamide]
